Data published in ChEMBL document CHEMBL1122513, “Synthesis and antiviral activity of carbocyclic analogues of 2'-deoxyribofuranosides of 2-amino-6-substituted-purines and of 2-amino-6-substituted-8-azapurines” (J Med Chem, 1984).
Values after ≈ are worked out from the molar mass of the structure shown.

System: Vaccinia virus
Test: Concentration required to inhibit vaccinia virus induced cytopathogenic affects by 50%
Assay type: functional, Orthopoxvirus vaccinia
[1] = Orthopoxvirus vaccinia, read-out: MIC50

SMILES	MIC50 [µg/mL]	MIC50 [1] [µg/mL]
Nc1ncnc2c1ncn2[C@@H]1C[C@H](CO)[C@@H](O)[C@@H]1O	9 (≈ 33.9 µM)	9 (≈ 33.9 µM)
OCC1CC(n2nnc3c(O)ncnc32)C(O)C1O (stereo not given)	–	467 (≈ 1750 µM)
OCC1CC(n2cnc3c(O)ncnc32)C(O)C1O (stereo not given)	–	191 (≈ 717 µM)
Nc1ccn([C@@H]2C[C@H](CO)[C@@H](O)[C@H]2O)c(=O)n1 (stereo in doubt; form 2)	–	57 (≈ 236 µM)
